Values of other authors in US7141235B2, “Stabilized gas emulsion containing phospholipid for ultrasound contrast enhancement” (Imcor Pharmaceutical Co., priority 1993, dated 2006).

Conditions: in water

SMILES | gel to liquid-crystal phase transition temperature [°C]
CCCCCCCCCCCCCC(=O)OC[C@H](COP(=O)([O-])OCC[N+](C)(C)C)OC(=O)CCCCCCCCCCCCC [DMPC, dimyristoyl phosphatidylcholine] | 23.5
CCCCCCCCCCCCCCCCCC(=O)OC[C@H](COP(=O)([O-])OCC[N+](C)(C)C)OC(=O)CCCCCCCCCCCCCCCCC [DSPC, distearoyl phosphatidylcholine] | 55.5
